# Like-named read-outs stand apart in the source and are kept apart here. Non-standard residues stand in square brackets, D forms with d. Residues, ends and D or L forms follow the SMILES beside them. Ahx = NCCCCCC(=O)O
# Experiments:
# plasmin [1] = molecular target: T1, plasmin (Homo sapiens, UniProt P00747); conditions: cited from earlier work
# T1 construct: The amino-terminal heavy chain of PL consists of five kringle domains; The C-terminal light chain of plasmin is a typical serine protease (SP); purchased Chromogenix (Milano, Italy)
# T1 sequence (P00747 97-580 limits assumed): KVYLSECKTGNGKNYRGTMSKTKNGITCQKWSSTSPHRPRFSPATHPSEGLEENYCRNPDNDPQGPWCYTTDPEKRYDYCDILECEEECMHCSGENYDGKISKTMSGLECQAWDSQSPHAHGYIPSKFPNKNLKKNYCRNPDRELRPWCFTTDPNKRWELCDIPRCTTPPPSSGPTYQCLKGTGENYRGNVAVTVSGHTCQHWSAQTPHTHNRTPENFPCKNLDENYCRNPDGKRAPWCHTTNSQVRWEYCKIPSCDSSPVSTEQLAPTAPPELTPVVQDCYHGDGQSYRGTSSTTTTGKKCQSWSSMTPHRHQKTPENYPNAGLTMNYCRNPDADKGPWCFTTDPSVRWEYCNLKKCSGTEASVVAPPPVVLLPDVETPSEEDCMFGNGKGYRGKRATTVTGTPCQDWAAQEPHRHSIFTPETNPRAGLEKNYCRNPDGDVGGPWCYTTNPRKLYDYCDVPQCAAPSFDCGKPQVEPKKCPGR
# T1 sequence (P00747 581-810 limits assumed): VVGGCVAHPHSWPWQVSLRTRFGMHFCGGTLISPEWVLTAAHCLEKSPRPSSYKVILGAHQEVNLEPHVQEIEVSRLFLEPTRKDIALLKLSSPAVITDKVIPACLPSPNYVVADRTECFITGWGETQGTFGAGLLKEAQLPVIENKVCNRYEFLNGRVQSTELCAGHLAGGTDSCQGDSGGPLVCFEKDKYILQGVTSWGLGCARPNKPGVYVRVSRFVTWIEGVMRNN
# uPA = molecular target: T2, uPA (Homo sapiens, UniProt P00749); assay: Amidolytic activity of urokinase (substrate S-2444); assay type: biochemical; conditions: for IC50: amidolytic activity, S-2444, tris buffer pH 8.8
# T2 construct: purchased Sigma (Schnelldorf, Germany)
# Protocol: (§1) Determination of amidolytic activity was performed as previously described by (Okada et al. [1988]). Buffer and 0.1 ml of enzyme solution was added to 0.2 ml of examined compound dissolved in 0.15 M NaCl (1–15) (as control 0.15 M NaCl). The buffer and the enzyme solution included: • tris buffer—0.6 ml (pH 8.8), enzyme: urokinase (50 units/ml), synthetic substrate: S-2444 (0.1 ml, 3 mM); • tris buffer—0.5 ml (pH 8.4), enzyme: thrombin (1 units/ml), synthetic substrate: S-2238 (0.2 ml, 0.75 mM); • tris buffer—0.5 ml (pH 7.4), enzyme: plasmin (0.4 units/ml), synthetic substrate: S-2251 (0.2 ml, 3 mM); • […]—0.5 ml (pH 7.5), enzyme: trypsin (0.4 units/ml), synthetic substrate: Bzl-L-Arg–pNA.HCl (0.2 ml, 8 mM); • tris buffer—0.6 ml (pH 9.0), enzyme: kallikrein (3 units/ml), synthetic substrate: S-2266 (0.1 ml, 75 mM); • tris buffer—0.6 ml (pH 8.4), enzyme: t-PA ([…]), synthetic substrate: S-2288 (0.1 ml, 10 mM).
# (§2) IC50 values were determined (IC50, Inhibitor Concentration, the concentration at which enzyme activity is inhibited by 50 %). Our results were compared with the 6-aminohexanoic acid.
# tPA = molecular target: T3, tPA (Homo sapiens, UniProt P00750); assay: Amidolytic activity of t-PA (substrate S-2288); assay type: biochemical; conditions: for IC50: amidolytic activity, S-2288, tris buffer pH 8.4
# T3 construct: purchased Boehringer Ingelheim GmbH (Ingelheim, Germany)
# T3 sequence (P00750 36-562): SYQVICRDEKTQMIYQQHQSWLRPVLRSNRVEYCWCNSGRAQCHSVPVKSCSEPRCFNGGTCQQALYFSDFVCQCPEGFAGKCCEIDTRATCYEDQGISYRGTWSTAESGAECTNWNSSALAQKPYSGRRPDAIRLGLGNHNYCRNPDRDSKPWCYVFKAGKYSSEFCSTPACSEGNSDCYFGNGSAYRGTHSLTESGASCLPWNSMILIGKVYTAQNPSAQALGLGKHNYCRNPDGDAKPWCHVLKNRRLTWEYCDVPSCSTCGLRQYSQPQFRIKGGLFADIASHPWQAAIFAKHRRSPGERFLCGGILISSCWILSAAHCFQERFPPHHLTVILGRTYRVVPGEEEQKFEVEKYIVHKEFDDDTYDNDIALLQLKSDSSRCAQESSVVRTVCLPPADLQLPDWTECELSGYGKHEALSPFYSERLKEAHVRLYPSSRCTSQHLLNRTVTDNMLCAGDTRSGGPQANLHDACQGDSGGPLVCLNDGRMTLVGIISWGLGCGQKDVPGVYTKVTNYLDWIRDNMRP
# Protocol: as §1, §2
# plasmin [2] = molecular target: T1, plasmin; assay: Amidolytic activity of plasmin (substrate S-2251); assay type: biochemical; conditions: for IC50: amidolytic activity, S-2251, tris buffer pH 7.4
# Protocol: as §1, §2
# thrombin = molecular target: T4, thrombin (Bos taurus, UniProt P00735); assay: Amidolytic activity of thrombin (substrate S-2238); assay type: biochemical; conditions: for IC50: amidolytic activity, S-2238, tris buffer pH 8.4
# T4 construct: purchased Lubelska Wytwórnia Szczepionek (Lublin, Poland)
# Protocol: as §1, §2
# [3] = tested on: fibrinolysis in whole blood; assay: Thromboelastometric (ROTEM) analysis of clot formation and fibrinolysis in whole blood; parameters: species or system human
# Protocol: Five healthy volunteers, men (age range: 25–34 years)) with normal blood cell counts were entered into the study. Healthy volunteers had not taken medication known to affect platelet function and/or coagulation for at least 10 days before blood sampling.
# Blood was stored at room temperature for 30 min after venipuncture and then was evaluated by thromboelastometric analyses.
# Thromboelastometric measurements were performed using ROTEM system (Tem International GmbH, Manheim, Germany). […] We measured the parameters characterized kinetic of clot formation (clotting time, alpha angle), clot strength (maximal clot firmness; MCF), and fibrinolysis (percentage reduction of MCF, clot lysis time).
# MDA-MB-231 cells = assay: Cytotoxicity assay (method of Plumb et al.); assay type: cell-based; conditions: 10, 100, 250, 500 and 1000 μM
# Protocol: (§3) All studies were performed on MCF-7, MDA-MB-231 and DLD cells lines were purchased from American Type Culture Collection (Rockville, MD). The cells were maintained in DMEM supplemented with 5 % fetal bovine serum (FBS), […] glutamine, 50 U/ml penicillin, […] streptomycin at 37 °C in a 5 % CO2 incubator.
# (§4) The toxicity of the evaluated peptides was determined by the method of Plumb et al. ([1989]) in 10, 100, 250, 500 and 1000 μM concentrations. MCF-7, MDA-MB-231 and DLD cells were maintained as described above. The detailed description of the method is given by (Markowska et al. [2013]).
# MCF-7 cells = assay: Cytotoxicity assay (method of Plumb et al.); assay type: cell-based; conditions: 10, 100, 250, 500 and 1000 μM
# Protocol: as §3, §4
# [4] = tested on: colon cancer cell line DLD-1; assay: Cytotoxicity assay (method of Plumb et al.); assay type: cell-based; conditions: 10, 100, 250, 500 and 1000 μM
# Protocol: as §3, §4
# kallikrein = assay: Amidolytic activity of kallikrein (substrate S-2266); assay type: biochemical; conditions: maximum concentration 20 mM, S-2266, pH 9.0
# Protocol: as §1, §2
# trypsin = assay: Amidolytic activity of trypsin (substrate Bzl-L-Arg-pNA); assay type: biochemical; conditions: for IC50: amidolytic activity, Bzl-L-Arg-pNA, borane buffer pH 7.5
# Protocol: as §1, §2
# fibroblast cells = assay: Cytotoxicity assay, normal cells; assay type: cell-based
# [5] = recalcified human whole blood, 140 ng/ml TF, 125 ng/ml tPA
Compound,IC50 (uPA) [mM],IC50 (tPA) [mM],IC50 (plasmin [2]) [mM],IC50 (thrombin) [mM],other results
CC(=O)N[C@@H](CCCCN)C(=O)NCCCCCN [Ac–Lys–NH–(CH2)5–NH2],–,–,–,–,IC50 (plasmin [1]; ref Midura-Nowaczek et al. [2008]): 8 mM
"C[C@H](N)C(=O)N[C@@H](Cc1ccccc1)C(=O)NCCCCCC(=O)O [Compound 5, H–Ala–Phe–EACA–OH] (H-Ala-Phe-[Ahx]-OH)",3.38 ± 0.27,> 20,> 20,4.77 ± 0.38,–
"C[C@H](N)C(=O)N[C@@H](Cc1ccccc1)C(=O)N[C@@H](CCCCN)C(=O)NCCCCCC(=O)NCCCCCN [Compound 13, H–Ala–Phe–Lys–EACA–NH–(CH2)5–NH2]",> 20,> 20,1.4 ± 0.11,> 20,–
"NCCCCCC(=O)O [EACA, 6-aminohexanoic acid]",–,–,–,–,"effect on amidolytic activity of uPA (in words) (uPA; maximum concentration 20 mM): No effect; clotting time (CT, coagulation time) ([3]; human whole blood, control 174 s): 137 s; lysis of the clot in 45 min (from LI45) ([3]; human whole blood, whole blood alone about 61 %): 1%; LOT lysis onset time (clot amplitude reduced by 15 %) [3, 5]: ≥4084 s; LT lysis time (clot reduced/lysed by 90 %) [3, 5]: ≥168 min; LI30 lysis index, amplitude of clot after 30 min ([3]; recalcified human whole blood, TF + tPA, 30 min): 100%; LI45 lysis index, amplitude of clot after 45 min ([3]; recalcified human whole blood, TF + tPA, 45 min): 98%; LI60 lysis index, amplitude of clot after 60 min ([3]; recalcified human whole blood, TF + tPA, 60 min): 92%; cytotoxic effect / viability of MDA-MB-231 cells (MDA-MB-231 cells): did not display cytotoxicity; cytotoxic effect / viability of MCF-7 cells (MCF-7 cells): did not display cytotoxicity; cytotoxic effect / viability of DLD-1 cells [4]: did not display cytotoxicity; effect on amidolytic activity of tPA (in words) (tPA; maximum concentration 20 mM): No effect; effect on amidolytic activity of plasmin (in words) (plasmin [2]; maximum concentration 20 mM): No effect; effect on amidolytic activity of thrombin (in words) (thrombin; maximum concentration 20 mM): No effect; influence on the enzymatic activity of kallikrein (kallikrein): No effect; effect on amidolytic activity of trypsin (in words) (trypsin; maximum concentration 20 mM): No effect; cytotoxic effect / viability of fibroblast cells (fibroblast cells): did not display cytotoxicity"
"C[C@@H](N)C(=O)N[C@@H](Cc1ccccc1)C(=O)NCCCCCC(=O)NCCCCCN [Compound 14, H–D-Ala–Phe–EACA–NH–(CH2)5–NH2]",> 20,> 20,4.77 ± 0.38,> 20,–
"C[C@H](N)C(=O)N[C@@H](Cc1ccccc1)C(=O)N[C@@H](CCCCN)C(=O)NCCCCCC(=O)O [Compound 3, H–Ala–Phe–Lys–EACA–OH] (H-AFK[Ahx]-OH)",> 20,17.6 ± 1.41,4.82 ± 0.39,5.04 ± 0.4,–
"C[C@@H](N)C(=O)N[C@@H](Cc1ccccc1)C(=O)N[C@@H](CCCCN)C(=O)NCCCCCC(=O)NCCCCCN [Compound 12, H–D-Ala–Phe–Lys–EACA–NH–(CH2)5–NH2]",> 20,> 20,1.11 ± 0.09,> 20,IC50 (trypsin): > 20 mM
H-[dA]-Phe-Lys-NH2,–,–,–,–,plasmin inhibitory activity (plasmin [1]; ref Markowska et al. ([2007])): no activity; inhibitory effect on plasmin activity (plasmin [1]; ref Midura-Nowaczek et al. [2003]): completely lacked this effect
"NCCCCCNC(=O)CCCCCNC(=O)[C@H](CCCCN)NC(=O)[C@@H](N)Cc1ccccc1 [Compound 11, H–Phe–Lys–EACA–NH–(CH2)5–NH2]",> 20,> 20,4.82 ± 0.39,> 20,–
"NCCCC[C@H](NC(=O)[C@@H](N)Cc1ccccc1)C(=O)NCCCCCC(N)=O [Compound 6, H–Phe–Lys–EACA–NH2] (H-Phe-Lys-[Ahx]-NH2)",> 20,> 20,1.43 ± 0.11,> 20,IC50 (trypsin): > 20 mM
"C[C@H](N)C(=O)N[C@@H](Cc1ccccc1)C(=O)NCCCCCC(N)=O [Compound 10, H–Ala–Phe–EACA–NH2] (H-Ala-Phe-[Ahx]-NH2)",2.61 ± 0.21,> 20,> 20,> 20,–
